One test concerns ergosterol biosynthesis. Nature of the test: Metabolomics (metabolite profiling) of fenpropidin treatment, FIG. 5. It counts as cell-based. The note with it: samples 0.5, 2, 6 and 48 hours after treatment.
For test [1], the system named is Pyricularia oryzae, Strain J1. It counts as cell-based. The note with it: for Fractional contribution of metabolite RI 3507: control 0.09 to 0.12; for Position of enzymatic inhibition in the metabolic sequence (breaking point): from increase/decrease of label incorporation, FIG. 3; for Non-polar metabolites changed (number of metabolite MIDs) / Polar metabolites changed (number of metabolite MIDs): treatment vs control; for Non-polar metabolites changed (number of metabolite MIDs): threshold 2% M0 difference, non-polar phase; for Polar metabolites changed (number of metabolite MIDs): threshold 5% M0 difference, polar phase.

Another test has as its system Lemna paucicostata. The note with it: in vivo.

Molecules are shown by their SMILES. Like-named read-outs stand apart in the source and are kept apart here.

For `CC(Cc1ccc(C(C)(C)C)cc1)CN1CCCCC1` (stereo not drawn) [fung 1, Fenpropidin], the “Change in ergosterol (metabolomics, fold-change to control)” value in the test on ergosterol biosynthesis was “reductions in ergosterol, however not significantly after 6 hours”. In test [1], the “Mode-of-action pinpointed by MIAMI” value is “a hand full of potential targets in steroid biosynthesis”; the “Position of enzymatic inhibition in the metabolic sequence (breaking point)” value is “between metabolites RI 3507 and RI 3309”; the “Non-polar metabolites changed (number of metabolite MIDs)” value came to 34; the “Polar metabolites changed (number of metabolite MIDs)” value came to 19. Also, in test [1] (2 hours after treatment), the “Fractional contribution of metabolite RI 3507” value is 0.16. Moreover, the “Fractional contribution of metabolite RI 3507” value in test [1] (6 hours after treatment) is listed as 0.18.
For `Fc1ccc([C@]2(Cn3cncn3)O[C@H]2c2ccccc2Cl)cc1` (racemic) [fung 2, Epoxiconazole], in test [1], the “Mode-of-action pinpointed by MIAMI” value was “a hand full of potential targets in steroid biosynthesis”; the “Position of enzymatic inhibition in the metabolic sequence (breaking point)” value was “between RI 3569 and RI 3309”; the “Non-polar metabolites changed (number of metabolite MIDs)” value was found to be 34; the “Polar metabolites changed (number of metabolite MIDs)” value turned out to be 26. For the same molecule, the “Fractional contribution of metabolite RI 3507” value in test [1] (2 hours after treatment) was 0.17. The “Fractional contribution of metabolite RI 3507” value in test [1] (6 hours after treatment) worked out at 0.37.
For `CC(C)C1(C)N=C(c2ncccc2C(=O)O)NC1=O` (stereo not drawn) [herbicide four, Imazapyr], in the test with Lemna paucicostata, the “Change in fractional contribution of differentially labeled metabolites” value is listed as “increase in fractional contribution, except for valine” and the “Mode-of-action indicated by MIAMI” value is reported as “mode-of-action in the valine biosynthesis pathway”.

These data come from patent US20220137057A1 (priority 2019, published 2022).
